In patent US9365614B2, “IAP BIR domain binding compounds” (priority 2006, dated 2016) one finds EC50 data, which are given here for 28 molecules.

*1 amine or outer side, *2 acyl side, *3 side chain or, on linkers, in order; H or OH if unused. Where a SMILES comes first, the peptide text is derived from it. Bridges are numbered along the chain shown (N, C = ends). Roman numbers before positions name the chains, in order. [ ]: non-standard residue; d: D form. The star is where a group is joined. cisHyp = O=C(O)[C@@H]1C[C@H](O)CN1; pXylylene = c1cc(C[*:2])ccc1C[*:1]; NHPhenethyl = c1ccc(CCN*)cc1; Tle = CC(C)(C)[C@H](N)C(=O)O; NMeA = CN[C@@H](C)C(=O)O Some results are limits rather than exact numbers.

The first assay concerns SKOV-3 cells. The assay can be described thus: Survival MTT assay, SKOV-3. In kind it is cell-based. The settings on record: Homo sapiens, SK-OV-3, 72 h, read-out: EC50 against SKOV3. On the procedure:
One day prior the treatment with compound, 2000 to 4000 cells per well were plated in a tissue culture treated 96 well format dish with 100 ul of media and incubated at 37° C., 5% CO2. On the day of compound treatment, compounds were diluted with cell culture media to a working stock concentration of 2×. 100 uL of diluted compound were then added to each well. The treated plate was incubated for 72 h at 37° C., 5% CO2. Upon incubation, the cell viability was assessed as followed 20 uL of MTT reagent at 5 mg/ml were added per well to cell plate. The plate was incubated for 2 h at 37° C. in presence of 5% CO2. The supernatant was then removed from the plate and 100 uL of isopropanol were added. The absorbance was measured in a TECAN spectrophotometer at 570 nm. The percentage of viability was expressed in percentage of the signal obtained with non treated cells.
The EC50 is the concentration needed to bring the measured effect to its halfway point. As to `CN[C@@H](C)C(=O)N[C@H](C(=O)N1C[C@@H](OCc2ccc(CO[C@H]3C[C@@H](C(=O)NCCc4ccccc4)N(C(=O)[C@@H](NC(=O)[C@H](C)NC)C(C)(C)C)C3)cc2)C[C@H]1C(=O)NCCc1ccccc1)C(C)(C)C` [Compound 29] (I: H-[NMeA]-[Tle]-[cisHyp]-NHPhenethyl / II: H-[NMeA]-[Tle]-[cisHyp]-NHPhenethyl; linker I:3-II:3 via pXylylene), the EC50 was found to be 88 nM.

Consider `CN[C@@H](C)C(=O)N[C@H](C(=O)N1C[C@@H](NC(=O)c2ccc(C(=O)N[C@H]3C[C@@H](CN(CCc4ccc(F)cc4)S(C)(=O)=O)N(C(=O)[C@@H](NC(=O)[C@H](C)NC)C(C)(C)C)C3)cc2)C[C@H]1CN(CCc1ccc(F)cc1)S(C)(=O)=O)C(C)(C)C` [Compound 30], for which the concentration giving a half-maximal response (EC50) worked out at 188 nM.

The assay is the same for the next values; noted with them: Homo sapiens, SK-OV-3, 72 h, read-out: SKOV-3 EC50.
With `CN[C@@H](C)C(=O)C[C@H](C(=O)N1C[C@@H](NC(=O)CCCCCCCC(=O)N[C@H]2C[C@@H](C(=O)N[C@@H]3CCCc4ccccc43)N(C(=O)[C@@H](NC(=O)[C@H](C)NC)C(C)(C)C)C2)C[C@H]1C(=O)N[C@@H]1CCCc2ccccc21)C(C)(C)C` [Compound 12], the EC50 is below 50 nM.

Take `CN[C@@H](C)C(=O)N[C@H](C(=O)N1CC(NC(=O)CCCCCC(=O)N[C@H]2C[C@@H](C(=O)N[C@@H]3CCCc4ccccc43)N(C(=O)[C@@H](NC(=O)[C@H](C)NC)C(C)(C)C)C2)C[C@H]1C(=O)NC1CCCc2ccccc21)C(C)(C)C` (stereo partly drawn) [Compound 13]: the half-maximal effective concentration (EC50) was below 50 nM.

Consider `CN[C@@H](C)C(=O)N[C@H](C(=O)N1C[C@@H](NC(=O)CCCC(=O)N[C@H]2C[C@@H](C(=O)N[C@@H]3CCCc4ccccc43)N(C(=O)[C@@H](NC(=O)[C@H](C)NC)C(C)(C)C)C2)C[C@H]1C(=O)NC1CCCc2ccccc21)C(C)(C)C` (stereo partly drawn) [Compound 14], for which the EC50 was below 50 nM.

On to `CN[C@@H](C)C(=O)N[C@H](C(=O)N1C[C@@H](NC(=O)Cc2ccc(CC(=O)N[C@H]3C[C@@H](C(=O)N[C@@H]4CCCc5ccccc54)N(C(=O)[C@@H](NC(=O)[C@H](C)NC)C(C)(C)C)C3)cc2)C[C@H]1C(=O)N[C@@H]1CCCc2ccccc21)C(C)(C)C` [Compound 15], for which the concentration for a half-maximal effect (EC50) was below 50 nM.

As for `CN[C@@H](C)C(=O)N[C@H](C(=O)N1C[C@@H](NC(=O)c2ccc(Oc3ccc(C(=O)N[C@H]4C[C@@H](C(=O)N[C@@H]5CCCc6ccccc65)N(C(=O)[C@@H](NC(=O)[C@H](C)NC)C(C)(C)C)C4)cc3)cc2)C[C@H]1C(=O)N[C@@H]1CCCc2ccccc21)C(C)(C)C` [Compound 16], the concentration for a half-maximal effect (EC50) is below 50 nM.

Regarding `CN[C@@H](C)C(=O)N[C@H](C(=O)N1C[C@@H](OCc2ccc(CO[C@H]3C[C@@H](C(=O)N[C@@H]4CCCc5ccccc54)N(C(=O)[C@@H](NC(=O)[C@H](C)NC)C(C)(C)C)C3)cc2)C[C@H]1C(=O)N[C@@H]1CCCc2ccccc21)C(C)(C)C` [Compound 17], the concentration giving a half-maximal response (EC50) was below 50 nM.

Regarding `CN[C@@H](C)C(=O)N[C@H](C(=O)N1C[C@@H](NC(=O)c2ccc(C(=O)N[C@H]3C[C@@H](C(=O)OC)N(C(=O)[C@@H](NC(=O)[C@H](C)NC)C(C)(C)C)C3)cc2)C[C@H]1C(=O)OC)C(C)(C)C` [Compound 18], the EC50 is above 1000 nM.

Turning to `CN[C@@H](C)C(=O)N[C@H](C(=O)N1C[C@@H](NC(=O)c2ccc(C(=O)N[C@H]3C[C@@H](C(=O)NCCc4ccc(F)cc4)N(C(=O)[C@@H](NC(=O)[C@H](C)NC)C(C)(C)C)C3)cc2)C[C@H]1C(=O)NCCc1ccc(F)cc1)C(C)(C)C` [Compound 19], the concentration for a half-maximal effect (EC50) was below 50 nM.

For `CN[C@@H](C)C(=O)N[C@H](C(=O)N1C[C@@H](NC(=O)c2ccc(C(=O)N[C@H]3C[C@@H](C(=O)NCCc4ccccc4)N(C(=O)[C@@H](NC(=O)[C@H](C)NC)C(C)(C)C)C3)cc2)C[C@H]1C(=O)NCCc1ccccc1)C(C)(C)C` [Compound 20], the concentration for a half-maximal effect (EC50) was below 50 nM.

On to `CN[C@@H](C)C(=O)N[C@H](C(=O)N1C[C@@H](NC(=O)c2ccc(C(=O)N[C@H]3C[C@@H](C(=O)NC[C@H](C)c4ccccc4)N(C(=O)[C@@H](NC(=O)[C@H](C)NC)C(C)(C)C)C3)cc2)C[C@H]1C(=O)NC[C@@H](C)c1ccccc1)C(C)(C)C` [Compound 21], for which the EC50 is below 50 nM.

In the case of `CN[C@@H](C)C(=O)N[C@H](C(=O)N1C[C@@H](NC(=O)c2ccc(C(=O)N[C@H]3C[C@@H](C(=O)NC(C)C)N(C(=O)[C@@H](NC(=O)[C@H](C)NC)C(C)(C)C)C3)cc2)C[C@H]1C(=O)NC(C)C)C(C)(C)C` [Compound 22], the EC50 is below 250 nM.

On to `CN[C@@H](C)C(=O)N[C@H](C(=O)N1C[C@@H](NC(=O)c2ccc(C(=O)N[C@H]3C[C@@H](C(=O)N[C@@H]4CCCc5ccccc54)N(C(=O)[C@@H](NC(=O)[C@H](C)NC)C(C)(C)C)C3)cc2)C[C@H]1C(=O)N[C@H]1CCCc2ccccc21)C(C)(C)C` [Compound 23], for which the EC50 was below 50 nM.

Turning to `CN[C@@H](C)C(=O)N[C@H](C(=O)N1C[C@@H](NC(=O)c2ccc(C(=O)N[C@H]3C[C@@H](C(=O)NC(c4ccccc4)c4ccccc4)N(C(=O)[C@@H](NC(=O)[C@H](C)NC)C(C)(C)C)C3)cc2)C[C@H]1C(=O)NC(c1ccccc1)c1ccccc1)C(C)(C)C` [Compound 24], the EC50 is below 50 nM.

For `CN[C@@H](C)C(=O)N[C@H](C(=O)N1C[C@@H](NC(=O)c2ccc(C(=O)N[C@H]3C[C@@H](CN(CCc4ccccc4)C(C)=O)N(C(=O)[C@@H](NC(=O)[C@H](C)NC)C(C)(C)C)C3)cc2)C[C@H]1CN(CCc1ccccc1)C(C)=O)C(C)(C)C` [Compound 25], the 50% effective concentration (EC50) was below 50 nM.

Take `CN[C@@H](C)C(=O)N[C@H](C(=O)N1C[C@@H](NC(=O)c2ccc(C(=O)N[C@H]3C[C@@H](CN(CCc4ccccc4)S(C)(=O)=O)N(C(=O)[C@@H](NC(=O)[C@H](C)NC)C(C)(C)C)C3)cc2)C[C@H]1CN(CCc1ccccc1)S(C)(=O)=O)C(C)(C)C` [Compound 26]: the EC50 is below 250 nM.

Consider `CN[C@@H](C)C(=O)N[C@H](C(=O)N1C[C@@H](NC(=O)c2ccc(C(=O)N[C@H]3C[C@@H](CN(CCc4ccccc4)C(=O)c4ccccc4)N(C(=O)[C@@H](NC(=O)[C@H](C)NC)C(C)(C)C)C3)cc2)C[C@H]1CN(CCc1ccccc1)C(=O)c1ccccc1)C(C)(C)C` [Compound 27], for which the concentration giving a half-maximal response (EC50) was below 250 nM.

On to `CN[C@@H](C)C(=O)N[C@H](C(=O)N1C[C@@H](NC(=O)c2ccc(C(=O)N[C@H]3C[C@@H](CN(CCc4ccc(F)cc4)C(C)=O)N(C(=O)[C@@H](NC(=O)[C@H](C)NC)C(C)(C)C)C3)cc2)C[C@H]1CN(CCc1ccc(F)cc1)C(C)=O)C(C)(C)C` [Compound 28], for which the 50% effective concentration (EC50) is below 50 nM.

For the molecule `CN[C@@H](C)C(=O)N[C@H](C(=O)N1C[C@@H](OCc2ccc(CO[C@H]3C[C@@H](C(=O)NCCc4ccccc4)N(C(=O)[C@@H](NC(=O)[C@H](C)NC)C(C)(C)C)C3)cc2)C[C@H]1C(=O)NCCc1ccccc1)C(C)(C)C` [Compound 29] (I: H-[NMeA]-[Tle]-[cisHyp]-NHPhenethyl / II: H-[NMeA]-[Tle]-[cisHyp]-NHPhenethyl; linker I:3-II:3 via pXylylene), the EC50 is below 250 nM.

Turning to `CN[C@@H](C)C(=O)N[C@H](C(=O)N1C[C@@H](NC(=O)c2ccc(C(=O)N[C@H]3C[C@@H](CN(CCc4ccc(F)cc4)S(C)(=O)=O)N(C(=O)[C@@H](NC(=O)[C@H](C)NC)C(C)(C)C)C3)cc2)C[C@H]1CN(CCc1ccc(F)cc1)S(C)(=O)=O)C(C)(C)C` [Compound 30], the EC50 was above 1000 nM.

`CN[C@@H](C)C(=O)N[C@H](C(=O)N1C[C@@H](NC(=O)c2ccc(C(=O)N[C@H]3C[C@@H](C(=O)NCC(c4ccccc4)c4ccccc4)N(C(=O)[C@@H](NC(=O)[C@H](C)NC)C(C)(C)C)C3)cc2)C[C@H]1C(=O)NCC(c1ccccc1)c1ccccc1)C(C)(C)C` [Compound 31]: the concentration giving a half-maximal response (EC50) is below 250 nM.

As for `CN[C@@H](C)C(=O)N[C@H](C(=O)N1C[C@@H](NC(=O)c2ccc(C(=O)N[C@H]3C[C@@H](C(=O)NCc4cccc5ccccc45)N(C(=O)[C@@H](NC(=O)[C@H](C)NC)C(C)(C)C)C3)cc2)C[C@H]1C(=O)NCc1cccc2ccccc12)C(C)(C)C` [Compound 32], the EC50 is below 250 nM.

For the molecule `CN[C@@H](C)C(=O)N[C@H](C(=O)N1C[C@@H](NS(=O)(=O)c2cccc(S(=O)(=O)N[C@H]3C[C@@H](C(=O)N[C@@H]4CCCc5ccccc54)N(C(=O)[C@@H](NC(=O)[C@H](C)NC)C(C)(C)C)C3)c2)C[C@H]1C(=O)N[C@@H]1CCCc2ccccc21)C(C)(C)C` [Compound 33], the EC50 is below 50 nM.

With `CN[C@@H](C)C(=O)N[C@H](C(=O)N1C[C@@H](NC(=O)c2ccc(C(=O)N[C@H]3C[C@@H](C(=O)N[C@@H]4CCCc5ccccc54)N(C(=O)[C@@H](NC(=O)[C@H](C)NC)C(C)(C)C)C3)cc2)C[C@H]1C(=O)NC1CCCc2ccccc21)C(C)(C)C` (stereo partly drawn) [Compound 34], the half-maximal effective concentration (EC50) is below 250 nM.

Take `CN[C@@H](C)C(=O)N[C@H](C(=O)N1C[C@@H](NC(=O)CNC(=O)c2ccc(C(=O)NCC(=O)N[C@H]3C[C@@H](C(=O)N[C@@H]4CCCc5ccccc54)N(C(=O)[C@@H](NC(=O)[C@H](C)NC)C(C)(C)C)C3)cc2)C[C@H]1C(=O)N[C@@H]1CCCc2ccccc21)C(C)(C)C` [Compound 35]: the EC50 is below 250 nM.

With `CN[C@@H](C)C(=O)N[C@H](C(=O)N1C[C@@H](NC(=O)CNC(=O)C(=O)NCC(=O)N[C@H]2C[C@@H](C(=O)N[C@@H]3CCCc4ccccc43)N(C(=O)[C@@H](NC(=O)[C@H](C)NC)C(C)(C)C)C2)C[C@H]1C(=O)N[C@@H]1CCCc2ccccc21)C(C)(C)C` [Compound 36], the EC50 is above 1000 nM.

On to `CN[C@@H](C)C(=O)NC(C(=O)N1C[C@@H](NC(=O)CNC(=O)c2cccc(C(=O)NCC(=O)N[C@H]3C[C@@H](C(=O)N[C@@H]4CCCc5ccccc54)N(C(=O)[C@@H](NC(=O)[C@H](C)NC)C(C)(C)C)C3)c2)CC1C(=O)N[C@@H]1CCCc2ccccc21)C(C)(C)C` (stereo partly drawn) [Compound 37], for which the EC50 is above 1000 nM.

As for `CN[C@@H](C)C(=O)N[C@H](C(=O)N1C[C@@H](NC(=O)CNC(=O)c2ccc(-c3ccc(C(=O)NCC(=O)N[C@H]4C[C@@H](C(=O)N[C@@H]5CCCc6ccccc65)N(C(=O)[C@@H](NC(=O)[C@H](C)NC)C(C)(C)C)C4)cc3)cc2)C[C@H]1C(=O)N[C@@H]1CCCc2ccccc21)C(C)(C)C` [Compound 38], the EC50 was below 250 nM.

For the molecule `CN[C@@H](C)C(=O)N[C@H](C(=O)N1C[C@@H](NS(=O)(=O)c2ccc(-c3ccc(S(=O)(=O)N[C@H]4C[C@@H](C(=O)N[C@@H]5CCCc6ccccc65)N(C(=O)[C@@H](NC(=O)[C@H](C)NC)C(C)(C)C)C4)cc3)cc2)C[C@H]1C(=O)NC1CCCc2ccccc21)C(C)(C)C` (stereo partly drawn) [Compound 39], the EC50 was below 50 nM.
